Measurements published in patent US20120225896A1, “NOVEL 2-PYRIDONE DERIVATIVE AND PHARMACEUTICAL PRODUCT CONTAINING SAME” (KOWA COMPANY, LTD., priority 2009, published 2012).
Like-named read-outs stand apart in the source and are kept apart here.

Columns and labels:
human PPARγ2 = target: T1, human PPARγ2 (Homo sapiens, UniProt P37231); assay: PPARγ activation activity, Gal4-PPARγ2 LBD chimera luciferase transfection assay in COST cells; type: cell-based
T1 construct: the amino acids 182 to 505 of human PPARγ2; expressed in transfected cells; African green monkey kidney
Procedure: PPARγ Activation Activity
The agonistic activity of the compounds of the invention on PPARγ was measured based on the transfection assay using COST cells (DS Pharma Biomedical Co., Ltd., Osaka, Japan), which are the cell line derived from the kidney of the African green monkey. COST cells were cultured under 5% CO2 concentration, and DMEM medium containing 10% fetal bovine serum, glutamic acid, and antibiotics was used as a medium.
As an expression vector, a chimera in which DNA binding domain of Ga14, which is a yeast transcription factor, and ligand binding domain of human PPARγ2 are fused, i.e., a fused product between the amino acids 1 to 147 of Gal4 transcription factor and the amino acids 182 to 505 of human PPARγ2, was used. Furthermore, as a reporter vector, a firefly luciferase containing five copies of Gal4 recognition sequence in the promoter region was used. Plasmid transfection to the cells was performed according to a method which uses jetPEI (trade name, manufactured by Funakoshi Co., Ltd., Tokyo, Japan). Furthermore, β-galactosidase expression vector was employed as an internal standard.
After the transfection of the cells, the medium was replaced with a DMEM medium (containing 1% serum) added with the test compound, and the cells were further cultured for 16 hours. After that, the luciferase activity and β-galactosidase activity in the cell lysis solution were measured.
For the present test, dimethyl sulfoxide (DMSO) was used for dissolution and dilution of the test compounds, and during the cell treatment, the DMSO concentration in DMEM medium (containing 1% serum) was adjusted to 0.1%. The 50% effective concentration of the test compound (EC50, 50% effect concentration) was calculated by using SAS Preclinical Package Ver 5.0 (trade name, manufactured by SAS institute Japan Co., Tokyo, Japan), which is a statistical analysis program.
As shown in the Table 2, it was confirmed that the compounds of the present invention have a potent PPARγ activation activity. Under the same condition, the PPARγ activation activity of telmisartan, i.e., EC50, was 1 to 5 μM.

[1] = target: T2, angiotensin II type 1 receptor (Oryctolagus cuniculus, UniProt P34976); assay: Angiotensin II antagonistic activity in isolated rabbit blood vessels (angiotensin II-induced contraction of thoracic aorta ring); type: cell-based; conditions: angiotensin II (10 nM)-induced contraction, 37° C.
T2 construct: By using a specimen of isolated rabbit blood vessels; from tissue; host or cells: rabbit thoracic aorta ring (New Zealand White, male)
T2 sequence (P34976 1-359): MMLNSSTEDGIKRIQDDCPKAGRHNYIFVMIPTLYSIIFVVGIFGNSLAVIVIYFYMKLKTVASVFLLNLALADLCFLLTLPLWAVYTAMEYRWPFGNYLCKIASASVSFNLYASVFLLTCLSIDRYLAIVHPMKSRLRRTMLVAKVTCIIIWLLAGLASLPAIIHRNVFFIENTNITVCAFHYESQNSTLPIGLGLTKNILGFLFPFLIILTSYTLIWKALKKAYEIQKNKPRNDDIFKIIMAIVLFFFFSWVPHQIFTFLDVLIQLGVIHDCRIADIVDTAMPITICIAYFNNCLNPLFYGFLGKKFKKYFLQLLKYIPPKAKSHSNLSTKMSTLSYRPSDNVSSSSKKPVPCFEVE
Source text: Angiotensin II Antagonistic Activity in Isolated Rabbit Blood Vessels
By using a specimen of isolated rabbit blood vessels, antagonistic activity of the compounds of the invention against angiotensin II type 1 receptor was estimated from a dose-response curve of angiotensin II-induced blood vessel contraction. Specifically, the specimen of thoracic aorta ring of a rabbit (New Zealand White: male, 2.4 to 3.0 kg) was suspended in a magnus bath filled with Krebs-Henseleite buffer (composition: 118 mM NaCl, 4.7 mM KCl, 2.55 mM CaCl2, 1.18 mM MgSO4, 1.18 mM KH2PO4, 24.88 mM NaHCO3, and 11.1 mM D-glucose), and angiotensin II (10 nM)-induced contraction was obtained in the presence of the compounds of each example (1 nmol/L to 10 μmol/L). During the measurement, the inside temperature of the magnus bath was maintained at 37° C. and the bath was continuously ventilated with a sufficient amount of mixed gas (95% O2 and 5% CO2). The angiotensin II-induced contraction was converted into a relative value (%) that is based on the angiotensin II (10 nM)-induced contraction in the absence of the compounds of each example. From the concentration-response curve obtained therefrom, 50% inhibition concentration (IC50 value) was calculated by using SAS Preclinical Package Ver5.0 (trade name, manufactured by SAS institute Japan Co., Tokyo, Japan), which is a statistical analysis program.
As shown in the Table 1, it was confirmed that the compounds of the invention have a potent angiotensin II antagonistic activity.

[2] = COST cells transfected with Gal4 (aa 1-147)/human PPARγ2 (aa 182-505) chimera, luciferase reporter, 16 hours, read-out: EC50

T1 sequence (P37231 182-505): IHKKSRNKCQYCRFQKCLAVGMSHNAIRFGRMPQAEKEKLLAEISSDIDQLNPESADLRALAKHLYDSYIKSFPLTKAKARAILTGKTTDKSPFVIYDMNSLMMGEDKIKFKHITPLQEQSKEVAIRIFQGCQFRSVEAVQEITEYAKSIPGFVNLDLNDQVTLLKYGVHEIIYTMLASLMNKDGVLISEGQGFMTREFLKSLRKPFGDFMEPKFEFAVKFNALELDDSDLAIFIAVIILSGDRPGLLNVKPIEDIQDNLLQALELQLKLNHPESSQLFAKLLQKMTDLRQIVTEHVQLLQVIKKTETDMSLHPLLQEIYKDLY
T1 sequence (P04386 1-147 partner limits assumed): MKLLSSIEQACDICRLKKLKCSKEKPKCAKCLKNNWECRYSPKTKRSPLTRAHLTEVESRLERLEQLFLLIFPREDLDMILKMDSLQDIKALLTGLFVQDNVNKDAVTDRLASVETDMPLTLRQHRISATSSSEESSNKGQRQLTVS

EC50 (human PPARγ2; [2]) [nM]	IC50 [1] [nM]	SMILES	EC50 (human PPARγ2) [nM]
260		CCCCCc1cc(C)n(Cc2ccccc2)c(=O)c1Cc1ccc(-c2ccccc2-c2noc(=O)[nH]2)cc1 [Example 6, 3-{4′-[(1-benzyl-6-methyl-2-oxo-4-pentyl-1,2-dihydropyridin-3-yl)methyl]biphenyl-2-yl}-1,2,4-oxadiazol-5(4H)-one]	
1400		CCCCc1cc(C)n(-c2ccccn2)c(=O)c1Cc1ccc(-c2ccccc2-c2noc(=O)[nH]2)cc1 [Example 16, 3-{4′-{[4-butyl-6-methyl-2-oxo-1-(pyridin-2-yl)-1,2-dihydropyridin-3-yl]methyl}biphenyl-2-yl}-1,2,4-oxadiazol-5(4H)-one]	
2220	330	CCCCc1cc(C)n(-c2ncc(OCC)cn2)c(=O)c1Cc1ccc(-c2ccccc2-c2nnn[nH]2)cc1 [Example 11, 3-{[2′-(1H-tetrazol-5-yl)biphenyl-4-yl]methyl}-4-butyl-1-(5-ethoxypyrimidin-2-yl)-6-methylpyridin-2(1H)-one]	
1270	540	CCCCc1cc(C)n(-c2ncc(OC)cn2)c(=O)c1Cc1ccc(-c2ccccc2-c2noc(=O)[nH]2)cc1 [Example 14, 3-{4′-{[4-butyl-1-(5-methoxypyrimidin-2-yl)-6-methyl-2-oxo-1,2-dihydropyridin-3-yl]methyl}biphenyl-2-yl}-1,2,4-oxadiazol-5(4H)-one]	
560	160	CCCCc1cc(C)n(CCOC)c(=O)c1Cc1ccc(-c2ccccc2-c2nnn[nH]2)cc1 [Example 9, 3-{[2′-(1H-tetrazol-5-yl)biphenyl-4-yl]methyl}-4-butyl-1-(2-methoxyethyl)-6-methylpyridin-2(1H)-one]	
260		CCCCc1cc(C)n(Cc2ccccc2)c(=O)c1Cc1ccc(-c2ccccc2-c2noc(=O)[nH]2)cc1 [Example 2, 3-{4′-[(1-benzyl-4-butyl-6-methyl-2-oxo-1,2-dihydropyridin-3-yl)methyl]biphenyl-2-yl}-1,2,4-oxadiazol-5(4H)-one]	
140		CCCOc1cc(C)n(Cc2ccccc2)c(=O)c1Cc1ccc(-c2ccccc2-c2noc(=O)[nH]2)cc1 [Example 18, 3-{4′-[(1-benzyl-6-methyl-2-oxo-4-propoxy-1,2-dihydropyridin-3-yl)methyl]biphenyl-2-yl}-1,2,4-oxadiazol-5(4H)-one]	
500		CCCCCc1cc(C)n(Cc2ccccc2)c(=O)c1Cc1ccc(-c2ccccc2-c2nnn[nH]2)cc1 [Example 5, 3-{[2′-(1H-tetrazol-5-yl)biphenyl-4-yl]methyl}-1-benzyl-6-m ethyl-4-pentylpyridin-2(1H)-one]	
400		CCCCc1cc(C)n(Cc2ccccc2)c(=O)c1Cc1ccc(-c2ccccc2-c2nnn[nH]2)cc1 [Example 1, 3-{[2′-(1H-tetrazol-5-yl)biphenyl-4-yl]methyl}-1-benzyl-4-butyl-6-methylpyridin-2(1H)-one]	
450	190	CCCCc1cc(C)n(CCOC)c(=O)c1Cc1ccc(-c2ccccc2-c2noc(=O)[nH]2)cc1 [Example 10, 3-{4′-{[4-butyl-1-(2-methoxyethyl)-6-methyl-2-oxo-1,2-dihydropyridin-3-yl)methyl]biphenyl-2-yl}-1,2,4-oxadiazol-5(4H)-one]	
		CCCc1nc2c(C)cc(-c3nc4ccccc4n3C)cc2n1Cc1ccc(-c2ccccc2C(=O)O)cc1 [telmisartan, reference compound]	1000 to 5000
1660	460	CCCCc1cc(C)n(-c2ccccn2)c(=O)c1Cc1ccc(-c2ccccc2-c2nnn[nH]2)cc1 [Example 15, 3-{[2′-(1H-tetrazol-5-yl)biphenyl-4-yl]methyl}-4-butyl-6-methyl-1-(pyridin-2-yl)pyridin-2(1H)-one]	
590	460	CCCCc1cc(C)n(-c2ncc(OCC)cn2)c(=O)c1Cc1ccc(-c2ccccc2-c2noc(=O)[nH]2)cc1 [Example 12, 3-{4′-{[4-butyl-1-(5-ethoxypyrimidin-2-yl)-6-methyl-2-oxo-1,2-dihydropyridin-3-yl]methyl}biphenyl-2-yl}-1,2,4-oxadiazol-5(4H)-one]	
200	390	CCCCc1cc(C)n(CCc2ccccc2)c(=O)c1Cc1ccc(-c2ccccc2-c2noc(=O)[nH]2)cc1 [Example 8, 3-{4′-[(4-butyl-6-methyl-2-oxo-1-phenethyl-1,2-dihydropyridin-3-yl)methyl]biphenyl-2-yl}-1,2,4-oxadiazol-5(4H)-one]	
270	580	CCCCc1cc(C)n(CCc2ccccc2)c(=O)c1Cc1ccc(-c2ccccc2-c2nnn[nH]2)cc1 [Example 7, 3-{[2′-(1H-tetrazol-5-yl)biphenyl-4-yl]methyl}-4-butyl-6-methyl-1-phenethylpyridin-2(1H)-one]	
320		CCCc1cc(C)n(Cc2ccccc2)c(=O)c1Cc1ccc(-c2ccccc2-c2nnn[nH]2)cc1 [Example 3, 3-{[2′-(1H-tetrazol-5-yl)biphenyl-4-yl]methyl}-1-benzyl-6-m ethyl-4-propylpyridin-2(1H)-one]	
580		CCCOc1cc(C)n(Cc2ccccc2)c(=O)c1Cc1ccc(-c2ccccc2-c2nnn[nH]2)cc1 [Example 17, 3-{[2′-(1H-tetrazol-5-yl)biphenyl-4-yl]methyl}-1-benzyl-6-m ethyl-4-propoxypyridin-2(1H)-one]	
200		CCCc1cc(C)n(Cc2ccccc2)c(=O)c1Cc1ccc(-c2ccccc2-c2noc(=O)[nH]2)cc1 [Example 4, 3-{4′-[(1-benzyl-6-methyl-2-oxo-4-propyl-1,2-dihydropyridin-3-yl)methyl]biphenyl-2-yl}-1,2,4-oxadiazol-5(4H)-one]	
